Results on 4 compounds are retold here after patent US11064940B2, “Methods for detecting and treating pain using brain activity” (Rhode Island Hospital, priority 2016, dated 2021).

Read-outs that look alike come from different tables or passages of the source.

Data set [1] deals with male Sprague-Dawley rats. Briefly: Thermal hyperalgesia, paw withdrawal latency (PWL) to radiant heat. Format: in vivo, rat.
The test system of data set [2] is male Sprague-Dawley rats. In words: Cortical EEG coherence (3-30 Hz) between S1 and PFC electrodes. Format: in vivo, rat.
The subject of data set [3] is male Sprague-Dawley rats.
For data set [4], the system named is transgenic mice co-expressing VGAT with Channelrhodopsin-2. Briefly: SI theta power (LFP) after intradermal capsaicin in VGAT-ChR2 mice. The format is in vivo, mouse. To be noted: 15-20 minutes after intradermal injection of capsaicin in the hindpaw, n=5 mice. From the text: Thalamic bursts are triggered predominantly by GABAergic drive from the reticular thalamic nucleus (TRN), a thin layer overlaying the thalamus that receives strong input from limbic cortical areas. To selectively induce thalamic bursts, TRNs were optically stimulated in awake, unrestrained transgenic mice co-expressing the vesicular GABA transporter (VGAT) with Channelrhodopsin-2 (ChR2). In these mice, ChR2 expression in the thalamus is restricted to the TRN. Age-matched wild-type (C57 Bl\6J) non-ChR2 expressing mice were also used to control for non-specific optical stimulation effects. The naïve state refers to normal conditions prior to induction of the pain models. A custom-made multi-channel system was used to record extracellularly from putative single-units in ventral posterolateral (VPL) thalamus and local field potential (LFP) in the primary somatosensory cortex (S1) hindlimb area (FIGS. 9A-9B). For a description of the FlexDrive system assembly see www.open-ephys.org/[…]. […] FlexDrives were fixed to the skull using C&B-METABOND® Quick! Adhesive (Parkell). After 3 days postoperatively, tetrodes were lowered incrementally ( 500 μm over 5-7 days) until auditory confirmation of typical neuronal responses as expected in VPL and SI (e.g., increased multiunit firing) evoked by light brushing of the left hindpaw. Tetrode positions were also corroborated by stereotaxic coordinates. […]

A further data set has as its system VPL neurons. Briefly: Spontaneous burst firing of VPL thalamic neurons after capsaicin. The format is in vivo, mouse. To be noted: after capsaicin injection, n=17 units, 5 mice. From the text:
A custom-made multi-channel system was used to record extracellularly from putative single-units in ventral posterolateral (VPL) thalamus and local field potential (LFP) in the primary somatosensory cortex (S1) hindlimb area (FIGS. 9A-9B). For a description of the FlexDrive system assembly see www.open-ephys.org/[…]. […] FlexDrives were fixed to the skull using C&B-METABOND® Quick! Adhesive (Parkell). After 3 days postoperatively, tetrodes were lowered incrementally ( 500 μm over 5-7 days) until auditory confirmation of typical neuronal responses as expected in VPL and SI (e.g., increased multiunit firing) evoked by light brushing of the left hindpaw. Tetrode positions were also corroborated by stereotaxic coordinates. […] Chronic implants were stable over several weeks, allowing longitudinal analysis of neuronal activity with behavioral testing of mechanical sensitivity. […] Sorted spikes were then screened visually and inspected for false-positive or overlapping unitary assignments. Only one electrode per tetrode was used for spike sorting to minimize redundant assignments from the same unit. […] Moreover, isolation of putative unitary spikes also met the criterion of inter-spike interval (ISI)>2 ms (refractory period). […]

In data set [5] the test system is transgenic mice co-expressing VGAT with Channelrhodopsin-2. In words: Mechanical paw withdrawal threshold to von Frey filaments after capsaicin. To be noted: within 15-20 minutes after capsaicin injection, n=7 mice.
Description: For acute and chronic pain models, capsaicin (0.1%, 10 μl, intradermal) was injected into the plantar aspect of the left hindpaw under sedation (1.5% isoflurane <2 min) to prevent stress due to restraining the hindpaw.
Mechanical sensitivity of the hindpaw was assessed by measuring the threshold of withdrawal in response to the application of calibrated von Frey filaments of different bending forces to the plantar aspect of the hindpaw according to the ‘up-down’ method, whereby filaments of different bending forces were pressed against the paw until buckling for a maximum of 3 seconds or a withdrawal reflex.
[6] abbreviates: rats with CCI, d14, 30 min after i.p. pregabalin.
[7] abbreviates: rats with CFA, d2, before / 30 min after i.p. pregabalin.
Where [8] appears, read: rats with capsaicin, ibuprofen 30 mg/kg i.p.
The mark [9] stands for this setting: rats with capsaicin, ibuprofen 30 mg/kg i.p. concomitantly with capsaicin, EEG 30 min after.
[10] abbreviates: 30 min after capsaicin, n=8 rats.

Turning to `Cc1cccc(C)c1OCC(C)N` (stereo not shown) [mexiletine], the “PWL (FIG. 4B)” value in the data set on male Sprague-Dawley rats [1] (rats with CCI, after mexiletine 10 mg/kg i.p.) is recorded as 119±17. In the data set on male Sprague-Dawley rats [2] (rats with CCI d16, after mexiletine, n=5 rats), the “coherence between cS1 and PFC (mean 3-30 Hz coherence)” value (“coherence between cS1 and PFC” for short) came to 0.50±0.10. Moreover, in the data set with male Sprague-Dawley rats [3] (rat, in vivo), the “PFC EEG mean power” value was determined as 113±6, the “adverse EEG signs (diffuse or paroxysmal slow activity associated with drowsiness)” value is “did not manifest adverse EEG signs”, the “cS1 EEG mean power (FIG. 4A)” value came out at 134±18 and the “iS1 EEG mean power” value stood at 13926.
Turning to `CC(C)C[C@H](CN)CC(=O)O` [pregabalin], in the data set with male Sprague-Dawley rats [1] (rats with CCI, after pregabalin), the “PWL (FIG. 4B)” value worked out at 119±5. In the data set on male Sprague-Dawley rats [1] (rats with CFA, before / after pregabalin), the “PWL (FIG. 4B)” value was determined as 132±17. The “coherence between cS1 and PFC” value in the data set on male Sprague-Dawley rats [2] (rats with CCI d14, after pregabalin, n=5 rats) is recorded as 0.61±0.03. Moreover, in the data set with male Sprague-Dawley rats [3] (rat, in vivo), the “adverse EEG signs (diffuse or paroxysmal slow activity associated with drowsiness)” value was “did not manifest adverse EEG signs”. In the data set with male Sprague-Dawley rats [3] (setting [6]), the “PFC EEG mean power” value was determined as 133±14, the “cS1 EEG mean power (FIG. 4A)” value is given as 87±12 and the “iS1 EEG mean power” value was determined as 151±20. In addition, in the data set on male Sprague-Dawley rats [3] (setting [7]), the “PFC EEG mean power” value is given as 138±20, the “cS1 EEG mean power (FIG. 4A)” value was found to be 209±35 and the “iS1 EEG mean power” value is 133±9.
Consider `CC(C)Cc1ccc(C(C)C(=O)O)cc1` (stereo not shown) [ibuprofen], for which the “PWL (FIG. 4B)” value with male Sprague-Dawley rats [1] (setting [8]) came to 114±10. Further, in the data set with male Sprague-Dawley rats [3] (setting [9]), the “PFC EEG mean power” value is reported as 117±18 and the “iS1 EEG mean power” value stood at 143±35.
As to `COc1cc(CNC(=O)CCCC/C=C/C(C)C)ccc1O` [capsaicin], the “paw withdrawal latency (PWL)” value with male Sprague-Dawley rats [1] (setting [10]) came to 6.00 ± 0.24 s. In addition, the “paw withdrawal latency (PWL)” value with male Sprague-Dawley rats [1] (24 hour after capsaicin) was 9.15 ± 0.26 s. Besides, in the data set on male Sprague-Dawley rats [1] (setting [8]), the “PWL (FIG. 4B)” value stood at 64±3. Moreover, in the data set on male Sprague-Dawley rats [2] (rats with capsaicin or CFA), the cS1-iS1 coherence result was “did not significantly effect” and the iS1-PFC coherence entry is reported as “did not significantly effect”. Moreover, the “coherence between cS1 and PFC” value with male Sprague-Dawley rats [2] (rats with capsaicin, n=7 rats) was 0.61±0.05. Besides, the “SI power in the theta band at 3.8-6.2 Hz” value in data set [4] was 8.15×10^−2±0.13×10^−2 mV^2. Further, the “rate of spontaneous burst firing in VPL neurons” value in the data set on VPL neurons is 0.64±0.11. Besides, in the data set on male Sprague-Dawley rats [3] (setting [10]), the “PFC EEG mean power between 3 Hz to 30 Hz” value was found to be 0.67±0.06 mV^2×10^−5, the “cS1 EEG mean power between 3 Hz to 30 Hz” value turned out to be 1.05±0.11 mV^2×10^−5 and the “iS1 EEG mean power between 3 Hz to 30 Hz” value came to 1.05±0.8 mV^2×10^−5. In addition, in the data set on male Sprague-Dawley rats [3] (24 hours after capsaicin), the “PFC EEG mean power between 3 Hz to 30 Hz” value was 0.65±0.07 mV^2×10^−5, the “cS1 EEG mean power between 3 Hz to 30 Hz” value worked out at 0.89±0.12 mV^2×10^−5 and the “iS1 EEG mean power between 3 Hz to 30 Hz” value stood at 0.90±0.18 mV^2×10^−5. Besides, in the data set on male Sprague-Dawley rats [3] (setting [9]), the “PFC EEG mean power” value came out at 123±16, the “cS1 EEG mean power (FIG. 4A)” value is 128±17 and the “iS1 EEG mean power” value came out at 124±14. Further, in data set [5], the “paw withdrawal threshold (von Frey)” value was 1.00 ± 0.37 g.
